Laboratory results as given in patent US8865734B2 (priority 2010, dated 2014).
Values after ≈ are worked out from the molar mass of the structure shown.

Assays:
[1] = tested on: M. tuberculosis inside the host macrophage; experiment: QIM: Quantification of Intracellular Mycobacteria (intracellular growth assay, phenotypic cell-based); settings: Mycobacterium tuberculosis; MIC, 80% bacterial growth inhibition; intracellular growth; read-out: QIM
Excerpt: Accordingly, a phenotypic cell-based assay, suitable for high throughput screening, which allows for the search of compounds that would prevent M. tuberculosis multiplication inside the host macrophage was utilized (WO2010003533A2), overcoming many of the numerous and burdensome steps involved in previous methodologies (Arain et al., 1996).
A 120,000 small molecule compound library was screened using a validated phenotypic cell-based assay (WO2010003533A2). Active compounds from the primary screen were confirmed via dose response in the intracellular (QIM) assay and an in vitro (QUM) assay, wherein the abbreviation “QIM” stands for Quantification of Intracellular Mycobacteria and the abbreviation “QUM” stands for Quantification of in vitro grown Mycobacteria. […] The MIC is the minimum concentration of compound required to obtain 80% bacterial growth inhibition.
The imidazopyridine compounds (scaffolds Ia and Ib; see Table 1) underwent derivatization according to the methods outlined below (Schemes 1-13). Resulting derivatives were examined for inhibitory activity (MIC) using the assays described above (Example 1) and the results are summarized in Table 1.

[2] = tested on: in vitro grown Mycobacteria (M. tuberculosis); experiment: QUM: Quantification of in vitro grown Mycobacteria (in vitro growth fluorescence assay); format: cell-based; settings: Mycobacterium tuberculosis; MIC, 80% bacterial growth inhibition; in vitro growth; read-out: QUM
How it was run: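 Mycobacterium tuberculosis grown in vitro was quantified by fluorescence across compound dose responses. MIC is defined as the minimum concentration producing 80% growth inhibition.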

| Compound | MIC [1] [µM] | MIC [2] [µM] |
| --- | --- | --- |
| CCc1nc2ccc(Cl)cn2c1C(=O)NCc1ccc(-c2ccc(C)cc2)cc1 [Compound 86, 6-Chloro-2-ethyl-N-((4′-methylbiphenyl-4-yl)methyl)imidazo[1,2-a]pyridine-3-carboxamide] | < 1 | < 1 |
| CCc1nc2cc(Cl)ccn2c1C(=O)NCc1ccc(Cl)cc1 [Compound 87, 7-Chloro-N-(4-chlorobenzyl)-2-ethylimidazo[1,2-a]pyridine-3-carboxamide] | < 1 | < 1 |
| CCc1nc2cc(Cl)ccn2c1C(=O)NCc1ccc(O)cc1 [Compound 88, 7-Chloro-2-ethyl-N-(4-hydroxybenzyl)imidazo[1,2-a]pyridine-3-carboxamide] | 1 to 20 (≈ 0.33 to 6.6 µg/mL) | 1 to 20 (≈ 0.33 to 6.6 µg/mL) |
| CCc1nc2cc(Cl)ccn2c1C(=O)NCc1ccc(N2CCCCC2)cc1 [Compound 90, 7-Chloro-2-ethyl-N-(4-(piperidin-1-yl)benzyl)imidazo[1,2-a]pyridine-3-carboxamide] | < 1 | < 1 |
| CCc1nc2cc(Cl)ccn2c1C(=O)NCc1ccc2ccccc2c1 [Compound 91, 7-Chloro-2-ethyl-N-(naphthalen-2-ylmethyl)imidazo[1,2-a]pyridine-3-carboxamide] | 1 to 20 (≈ 0.364 to 7.28 µg/mL) | < 1 |
| CCc1nc2cc(Cl)ccn2c1C(=O)NCc1ccc(C(C)(C)C)cc1 [Compound 92, N-(4-tert-Butylbenzyl)-7-chloro-2-ethylimidazo[1,2-a]pyridine-3-carboxamide] | < 1 | < 1 |
| CCc1nc2cc(Cl)ccn2c1C(=O)NCc1ccc(-c2ccccc2)cc1 [Compound 93] | < 1 | < 1 |
| CCc1nc2cc(Cl)ccn2c1C(=O)NCc1ccc(-c2ccccc2Cl)cc1 [Compound 94, 7-Chloro-N-((2′-chlorobiphenyl-4-yl)methyl)-2-ethylimidazo[1,2-a]pyridine-3-carboxamide] | < 1 | < 1 |
| CCc1nc2cc(Cl)ccn2c1C(=O)NCc1ccc(-c2ccc(Cl)cc2)cc1 [Compound 95, 7-Chloro-N-((4′-chlorobiphenyl-4-yl)methyl)-2-ethylimidazo[1,2-a]pyridine-3-carboxamide] | < 1 | < 1 |
| CCc1nc2cc(Cl)ccn2c1C(=O)NCc1ccc(-c2ccccc2C)cc1 [Compound 96, 7-Chloro-2-ethyl-N-((2′-methylbiphenyl-4-yl)methyl)imidazo[1,2-a]pyridine-3-carboxamide] | < 1 | < 1 |
| CCc1nc2cc(Cl)ccn2c1C(=O)NCc1ccc(-c2cccc(C)c2)cc1 [Compound 97, 7-Chloro-2-ethyl-N-((3′-methylbiphenyl-4-yl)methyl)imidazo[1,2-a]pyridine-3-carboxamide] | < 1 | < 1 |
| CCc1nc2cc(Cl)ccn2c1C(=O)NCc1ccc(-c2ccc(C)cc2)cc1 [Compound 98, 7-Chloro-2-ethyl-N-((4′-methylbiphenyl-4-yl)methyl)imidazo[1,2-a]pyridine-3-carboxamide] | < 1 | < 1 |
| O=C(NCc1ccc(-c2ccccc2)cc1)c1c(C(F)(F)F)nc2ccc(Cl)cn12 [Compound 99, N-(Biphenyl-4-ylmethyl)-6-chloro-2-(trifluoromethyl)imidazo[1,2-a]pyridine-3-carboxamide] | < 1 | < 1 |
| CC(C)(C)c1ccc(CNC(=O)c2c(C(F)(F)F)nc3ccc(Cl)cn23)cc1 [Compound 100, N-(4-tert-Butylbenzyl)-6-chloro-2-(trifluoromethyl)imidazo[1,2-a]pyridine-3-carboxamide] | < 1 | < 1 |
| CCc1nc2cc(Cl)ccn2c1C(=O)NCc1ccc(Br)cc1 [Compound 101, N-(4-Bromobenzyl)-7-chloro-2-ethylimidazo[1,2-a]pyridine-3-carboxamide] | < 1 | 1 to 20 (≈ 0.393 to 7.85 µg/mL) |
| CCc1nc2cc(Cl)ccn2c1C(=O)NCc1ccc(OC(F)(F)F)cc1 [Compound 102, 7-Chloro-2-ethyl-N-(4-(trifluoromethoxy)benzyl)imidazo[1,2-a]pyridine-3-carboxamide] | 1 to 20 (≈ 0.398 to 7.96 µg/mL) | < 1 |
| CCc1nc2ccc(F)cn2c1C(=O)NCc1ccc(OC(F)(F)F)cc1 [Compound 103, 2-Ethyl-6-fluoro-N-(4-(trifluoromethoxy)benzyl)imidazo[1,2-a]pyridine-3-carboxamide] | < 1 | 1 to 20 (≈ 0.381 to 7.63 µg/mL) |
| CCc1nc2cc(OC)ccn2c1C(=O)NCc1ccc(OC(F)(F)F)cc1 [Compound 104, 2-Ethyl-7-methoxy-N-(4-(trifluoromethoxy)benzyl)imidazo[1,2-a]pyridine-3-carboxamide] | 1 to 20 (≈ 0.393 to 7.87 µg/mL) | > 20 |

| Compound | MIC [1] [µM] | MIC [2] [µM] |
| --- | --- | --- |
| CCc1nc2cc(O)ccn2c1C(=O)NCc1ccc(OC(F)(F)F)cc1 [Compound 105, 2-Ethyl-7-hydroxy-N-(4-(trifluoromethoxy)benzyl)imidazo[1,2-a]pyridine-3-carboxamide] | > 20 | > 20 |
| CCCNc1ccc(CNC(=O)c2c(CC)nc3cc(Cl)ccn23)cc1 [Compound 106, 7-Chloro-2-ethyl-N-(4-(propylamino)benzyl)imidazo[1,2-a]pyridine-3-carboxamide] | 1 to 20 (≈ 0.371 to 7.42 µg/mL) | < 1 |
| CCCCCNc1ccc(CNC(=O)c2c(CC)nc3cc(Cl)ccn23)cc1 [Compound 107, 7-Chloro-2-ethyl-N-(4-(pentylamino)benzyl)imidazo[1,2-a]pyridine-3-carboxamide] | < 1 | < 1 |
| CCc1nc2cc(Cl)ccn2c1C(=O)NCc1ccc(N2CCN(C)CC2)cc1 [Compound 109, 7-Chloro-2-ethyl-N-(4-(4-methylpiperazin-1-yl)benzyl)imidazo[1,2-a]pyridine-3-carboxamide] | 1 to 20 (≈ 0.412 to 8.24 µg/mL) | 1 to 20 (≈ 0.412 to 8.24 µg/mL) |
| CCc1nc2cc(Cl)ccn2c1C(=O)NCc1ccc(N2CCN(C(C)C)CC2)cc1 [Compound 110, 7-Chloro-2-ethyl-N-(4-(4-isopropylpiperazin-1-yl)benzyl)imidazo[1,2-a]pyridine-3-carboxamide] | < 1 | 1 to 20 (≈ 0.44 to 8.8 µg/mL) |
| CCc1nc2cc(Cl)ccn2c1C(=O)NCc1ccc(N2CCN(c3ccccc3)CC2)cc1 [Compound 111, 7-Chloro-2-ethyl-N-(4-(4-phenylpiperazin-1-yl)benzyl)imidazo[1,2-a]pyridine-3-carboxamide] | < 1 | < 1 |
| CCc1nc2ccc(Cl)cn2c1C(=O)NCc1ccc(N2CCN(c3ccc(F)cc3)CC2)cc1 [Compound 113, 6-Chloro-2-ethyl-N-(4-(4-(4-fluorophenyl)piperazin-1-yl)benzyl)imidazo[1,2-a]pyridine-3-carboxamide] | < 1 | < 1 |
| CCc1nc2cc(Cl)ccn2c1C(=O)NCc1ccc(-c2ccc(F)cc2)cc1 [Compound 116, 7-Chloro-2-ethyl-N-((4′-fluorobiphenyl-4-yl)methyl)imidazo[1,2-a]pyridine-3-carboxamide] | < 1 | < 1 |
| CCc1nc2cc(Cl)ccn2c1C(=O)NCc1ccc(-c2ccc(C(C)(C)C)cc2)cc1 [Compound 117, N-((4′-tert-Butylbiphenyl-4-yl)methyl)-7-chloro-2-ethylimidazo[1,2-a]pyridine-3-carboxamide] | < 1 | < 1 |
| CCc1nc2cc(Cl)ccn2c1C(=O)NCc1ccc(-c2ccc(OC)cc2)cc1 [Compound 118, 7-Chloro-2-ethyl-N-((4′-methoxybiphenyl-4-yl)methyl)imidazo[1,2-a]pyridine-3-carboxamide] | < 1 | < 1 |
| CCc1nc2cc(Cl)ccn2c1C(=O)NCc1ccc(-c2ccc(OC(F)(F)F)cc2)cc1 [Compound 119, 7-Chloro-2-ethyl-N-((4′-(trifluoromethoxy)biphenyl-4-yl)methyl)imidazo[1,2-a]pyridine-3-carboxamide] | < 1 | < 1 |
| CCc1nc2cc(Cl)ccn2c1C(=O)NCc1ccc(-c2ccc(C(F)(F)F)cc2)cc1 [Compound 120, 7-Chloro-2-ethyl-N-((4′-(trifluoromethyl)biphenyl-4-yl)methyl)imidazo[1,2-a]pyridine-3-carboxamide] | < 1 | < 1 |
| CCc1nc2ccc(Cl)cn2c1C(=O)NCc1ccc(-c2ccc(C#N)cc2)cc1 [Compound 121, 6-Chloro-N-((4′-cyanobiphenyl-4-yl)methyl)-2-ethylimidazo[1,2-a]pyridine-3-carboxamide] | < 1 | < 1 |
| CCc1nc2cc(Cl)ccn2c1C(=O)NCc1ccc(-c2ccc(C#N)cc2)cc1 [Compound 122, 7-Chloro-N-((4′-cyanobiphenyl-4-yl)methyl)-2-ethylimidazo[1,2-a]pyridine-3-carboxamide] | < 1 | < 1 |
| CCc1nc2ccc(Cl)cn2c1C(=O)NCc1ccc(-c2ccccc2C(F)(F)F)cc1 [Compound 123, 6-Chloro-2-ethyl-N-((2′-(trifluoromethyl)biphenyl-4-yl)methyl)imidazo[1,2-a]pyridine-3-carboxamide] | < 1 | 1 to 20 (≈ 0.458 to 9.16 µg/mL) |
| CCc1nc2cc(Cl)ccn2c1C(=O)NCc1ccc(-c2ccccc2C(F)(F)F)cc1 [Compound 124] | < 1 | 1 to 20 (≈ 0.458 to 9.16 µg/mL) |
| CCc1nc2ccc(Cl)cn2c1C(=O)NCc1ccc(-c2ccccc2C#N)cc1 [Compound 125, 6-Chloro-N-((2′-cyanobiphenyl-4-yl)methyl)-2-ethylimidazo[1,2-a]pyridine-3-carboxamide] | 1 to 20 (≈ 0.415 to 8.3 µg/mL) | < 1 |
